Test results reported in US12234233B2, “Crystal form of phosphodiesterase inhibitor, preparation method therefor and use thereof” (TRANSTHERA SCIENCES (NANJING), INC., priority 2019, dated 2025).
Like-named read-outs stand apart in the source and are kept apart here.

Test: Pharmacokinetic evaluation in rats
Format: in vivo, male SD rats
Protocol: Test substances: the compound of formula (I) was prepared by example 1 of the present invention, and the crystal form I was prepared by example 2 of the present invention.
Administration to Animals and Sample Collection:
(§1) the compound of formula (I) for the experiment was dissolved with 2% DMSO+10% PEG400+88% (28% HP-3-CD) physiological saline to prepare a solution; the solution of the test substance was administered to SD rats by gavage at a dose of 5.0 mg/kg; and the blood sampling time points were 15 min, 30 min, 1 h, 2 h, 4 h, 6 h, 8 h and 24 h after administration.
as §1, with “The compound” for “the compound”, “by intravenous bolus” for “by gavage”, “of 1” for “of 5.0”, “were 5 min,” for “were”
The crystal form I for the experiment was dissolved with 5% DMSO+10% PEG400+85% (20% captisol) physiological saline solution to prepare a solution; the solution of the test substance was administered to SD rats by gavage at a dose of 60.0 mg/kg; and the blood sampling time points were 15 min, 30 min, 1 h, 2 h, 4 h, 8 h, 24 h, 30 h and 48 h after administration.
The crystal form I for the experiment was dissolved with 2% DMSO+10% PEG400+88% (28% HP-β-CD) physiological saline to prepare a solution; the solution of the test substance was administered to SD rats by intravenous bolus at a dose of 5 mg/kg; and the blood sampling time points were 5 min, 15 min, 30 min, 1 h, 4 h, 8 h, 12 h and 24 h after administration.
Compound of formula (I): the ordinary SD rats were used and fixed; the tails of the rats were heated in a water bath 10 minutes before each time point; and about 100 μL of blood was collected via a tail vein, and then placed in an anticoagulation tube containing EDTA-K2. The blood sample was centrifuged at 8000 rpm at 4° C. for 6 min to obtain a plasma sample, which was prepared within 30 minutes after blood collection. The plasma was stored in a refrigerator at −80° C. before the test.
Crystal form I: the rats were subjected to jugular vein cannulation (JVC); each time, about 0.35 ml of blood was collected from the rats via a jugular vein cannula into a centrifuge tube containing 5 μl of 15% EDTA-K2; the mixture was gently mixed to obtain a homogeneous mixture, and then the centrifuge tube was placed in an ice bath immediately. Within 1 hour after collecting whole blood, the mixture was centrifuged at 4° C. and 2400×g for 5 minutes, and the supernatant was immediately collected to obtain a plasma sample. The plasma was stored in a refrigerator at −80° C. before the test.
the plasma sample to be tested was taken out from the −80° C. refrigerator, subjected to natural melting at room temperature, and then vortexed for 5 min; […] of the plasma sample was precisely pipetted into a 1.5 mL centrifuge tube; […] of the internal standard working solution (tolbutamide in methanol) at a concentration of 100 ng/mL was added, and the mixture was mixed homogeneously; the homogeneous mixture was vortexed for 5 min, and then centrifuged at 12000 rpm for 5 min; 50 μL of the supernatant was precisely pipetted into a 96-well plate pre-filled with 150 μL of water/well; and the plate was vortexed for 5 min for homogenization, and subjected to LC-MS/MS assay, with a sample loading volume of 5 μL. […]

[1] = male SD rats, gavage 60.0 mg/kg
[2] = male SD rats, intravenous bolus 5 mg/kg

Tmax (Sprague-Dawley, rat, plasma, po, male SD rats, gavage 60.0 mg/kg): 1.67 h
AUC(0-t) (Sprague-Dawley, rat, plasma, po, male SD rats, gavage 60.0 mg/kg, read-out: AUClast PO): 40100 ng·h/mL
AUC(0-t) (Sprague-Dawley, rat, plasma, male SD rats, intravenous bolus 5 mg/kg, read-out: AUClast iv): 2450 ng·h/mL
AUClast PO/Dose [1]: 667.8 h*ng/mL per mg/kg
tz1/2 PO [1]: 3.91 h
AUClast iv/Dose [2]: 489.4 h*ng/mL per mg/kg
Cl_obs iv [2]: 2.13 L/h/kg
Vz_obs iv [2]: 0.898 L/kg
tz1/2 iv [2]: 0.453 h
Compound: CCc1cc2c(N3CCC(C)(OC)CC3)c(C#N)c(=O)[nH]c2cn1 [Crystal form I, 6-ethyl-4-(4-methoxy-4-methylpiperidin-1-yl)-2-oxo-1,2-dihydro-1,7-diazanaphthal ene-3-carbonitrile]
pharmacokinetic characteristics (conclusion from Table 2, rats): excellent pharmacokinetic characteristics
